Here are results for one compound from patent US9757399B2, “Butyrylcholinesterase inhibitors” (priority 2006, dated 2017).

One data set has as its system trypsin. The data set can be described thus: Trypsin activity (BAEE hydrolysis). Conditions: 10 μM, 60 minutes at 25° C. Type of data set: biochemical. The protocol: The effect of DB2ClPP (di-n-butyl 2-chlorophenyl phosphate) on the activity of trypsin was assayed. Trypsin was incubated with solvent, 10 μM DB2CPP, or 10 μM DIFP (a known inhibitor of trypsin) for 60 minutes at 25° C. to determine any inhibitory effect of DB2CPP on enzymatic activity. Enzyme activity is given as nmoles of BAEE hydrolyzed per minute at 25° C. Data shown are the mean of three replicates ±SEM. (FIG. 3)

The subject of another data set is hexokinase. The data set can be described thus: Hexokinase activity (NADPH generation). Type of data set: biochemical. Conditions: 10 μM, 60 min at 25° C. The protocol: The effect of DB2ClPP on hexokinase activity was assayed. Hexokinase was incubated with solvent, 10 mM iodoacetamide (a known hexokinase inhibitor), or 10 μM DB2CPP for 60 min at 25° C. Enzyme activity is given as the nmoles of NADPH generated per min at 25° C. Data shown are the mean of three replicates ±SEM. (FIG. 6)

The next data set deals with human umbilical cells. Type of data set: in vitro ADME. The protocol: Also, the uptake of di-n-butyl-2-chlorophenyl phosphate by human umbilical cells was measured after […] for both undifferentiated cells and differentiating neurons. (Table 6)
A further data set concerns the target T1, BuChase (Equus caballus, UniProt P81908).
T1 construct: butyrylcholinesterase (from horse serum); purchased Sigma; host or cells: horse serum (natural source)
As to the kind of experiment: MALDI-TOF of tryptic peptides of inhibitor-treated BuChase. The protocol:
BuChase was incubated with di-n-butyl-2-chlorophenyl phosphate. Excess inhibitor was removed and the enzyme was digested with trypsin. The tryptic peptides were then analyzed by MALDI-TOF. Unmodified peptide containing the active site serine (MW 2198.86) and modified peptide (MW 2390.9060) can be seen. […] Irreversible inhibitors usually covalently modify an enzyme, and inhibition cannot therefore be reversed.

Data set [1] concerns porcine umbilical stem cells. Type of data set: cell-based. As to conditions: increasing concentrations, 48 hours, Neurobasal Medium. The protocol: Porcine umbilical stem cells were cultured in Neurobasal Medium supplemented with B27 (Invitrogen) and antibiotics for various periods of with varying concentrations of di-n-butyl-2-chlorophenyl phosphate. Cells were collected, washed, counted, and analyzed for viability by Trypan Blue staining.

A further data set has as its system chymotrypsin. The data set can be described thus: Chymotrypsin activity (ATEE hydrolysis). It counts as biochemical. As to conditions: 10 μM, 60 minutes at 25° C. The protocol:
The effect of DB2ClPP on the activity of chymotrypsin was assayed. […] was incubated with solvent, 10 μM DB2CPP, or 10 μM PMSF (a known inhibitor of chymotrypsin) for 60 minutes at 25° C. to determine any inhibitory effect of DB2CPP on enzymatic activity. Enzyme activity is given as nmoles of ATEE hydrolyzed per minute at 25° C. Data shown are the mean of three replicates ±SEM. (FIG. 4)

The target of a further data set is T2, butyrylcholinesterase (Equus caballus, UniProt P81908).
T2 construct: butyrylcholinesterase (from horse serum); purchased Sigma; host or cells: horse serum (natural source)
As to the kind of experiment: Reactivation of inactive butyrylcholinesterase. Type of data set: biochemical, horse. The protocol:
BuChase was incubated with excess di-butyl 2-chlorophenyl phosphate for 60 min at 4° C. The excess phosphate was removed using a desalting column. The inactivated BuChase was incubated at 4° C. for various periods of time and then assayed for activity. […]

A further data set deals with S6K2 (Homo sapiens, UniProt Q9UBS0). The data set can be described thus: S6K2 activity (GST-S6 substrate, Pro-Q stain). As to conditions: varying concentrations, 30 minutes on ice, then ATP 30° C. 15 minutes. Type of data set: biochemical. The protocol:
(§1) For protein kinase activity, histone was used as the substrate for protein kinase A (PKA) and glutathione-S-transferase-S6 (GST-S6) for S6K2. Enzyme was pre-incubated with substrate and varying concentrations of inhibitor on ice for 30 minutes. The control sample contained solvent (methanol). ATP was then added to each sample and the cocktail incubated at 30° C. for 15 minutes. Equal amounts of each mixture were fractionated by SDS-PAGE on a 10% acrylamide gel. The gel was fixed in 50% methanol/10% acetic acid, washed with water, and then stained in Pro-Q Stain in the dark for 60 minutes. The gel was then destained, washed, and scanned on a Typhoon Imager (FIG. 5).

For data set [2], the target named is T3, butyrylcholinesterase (from horse serum) (Equus caballus, UniProt P81908).
T3 construct: butyrylcholinesterase (from horse serum); purchased Sigma; host or cells: horse serum (natural source)
The data set can be described thus: Rates of inactivation of butyrylcholinesterase, Ellman assay. It counts as biochemical. Conditions: 100 nM inhibitor, 25° C. The protocol: (§2) Acetylcholinesterase (from electric eel), butyrylcholinesterase (from horse serum), DTNB, butyrylthiocholine, acetylthiocholine, and BSA were purchased from Sigma. The dialkyl 2-chlorophenyl (and 4-chlorophenyl) phosphates were solubilized in reagent grade methanol.
(§3) Cholinesterase activity measurements were performed essentially according to the method of Ellman (Biochemical Pharmacology 7:88-90, 1961). The composition of the assay mixture was 0.1 M sodium phosphate, pH 7.5, 0.033 M DTNB, 0.001 M MgCl2, and 100 μg/mL of BSA containing appropriate amounts of substrate and inhibitor. Each assay was initiated by the addition of substrate and the activity quantified by measuring the formation of the thionitrobenzoate anion at 412 nm at 37° C. Methanol used to solubilize the dialkyl phenyl phosphates [1% (v/v) final concentration] had no inhibitory effect on either enzyme.
(§4) Butyrylcholinesterase was pre-incubated at room temperature with inhibitor in the assay cocktail minus substrate for varying periods of time at 25° C. Substrate was then added and the activity measured as described above. The relative rates of enzyme inactivation were determined by plotting enzyme activity versus time of pre-incubation with inhibitor. Results were expressed as the rate constant for the rate of enzyme inactivation. In the case of AcChase, results were expressed as the % of activity remaining relative to the enzyme incubated only with solvents.
. […] In Table 2, BuChase was incubated for increasing periods of time at 25° C. with 100 nM inhibitor then assayed for activity as described above. Rate constants were calculated from a plot of enzyme activity vs. time of inhibitor exposure. […]. Slopes were calculated by linear regression analysis.
For orientation: Ellman's reagent forms a yellow product with free thiols.

Data set [3] has as its target T4, Acetylcholinesterase (from electric eel) (Electrophorus electricus, UniProt O42275).
T4 construct: Acetylcholinesterase (from electric eel); purchased Sigma; host or cells: electric eel (natural source)
The data set can be described thus: Acetylcholinesterase activity, Ellman assay after pre-incubation with inhibitor. It counts as biochemical. As to conditions: 100 μM compound, 60 minutes at 25° C.; read-out: % Activity ± SD (acetylcholinesterase activity relative to enzyme incubated with solvent). The protocol: as §2, §3, §4
The first series of experiments determined the effect of the dialkyl 2-chlorophenyl (and 4-chlorophenyl) phosphates on both AcChase and BuChase. None of the compounds had any inhibitory effect on AcChase (See Table 1). In Table 1, AcChase was incubated with 100 μM of the indicated phenyl phosphate for 60 minutes at 25° C. and then assayed as described above. Results were expressed as the % activity relative to enzyme incubated with solvent ±SD (standard deviation).

A further data set deals with Protein Kinase A (PKA). The data set can be described thus: Protein kinase A activity (histone substrate, Pro-Q stain). As to conditions: varying concentrations, 30 minutes on ice, then ATP 30° C. 15 minutes. Type of data set: biochemical. The protocol:
as §1

Each structure is given as a SMILES string. Read-outs that look alike come from different tables or passages of the source.

T2 sequence (P81908 whole entry): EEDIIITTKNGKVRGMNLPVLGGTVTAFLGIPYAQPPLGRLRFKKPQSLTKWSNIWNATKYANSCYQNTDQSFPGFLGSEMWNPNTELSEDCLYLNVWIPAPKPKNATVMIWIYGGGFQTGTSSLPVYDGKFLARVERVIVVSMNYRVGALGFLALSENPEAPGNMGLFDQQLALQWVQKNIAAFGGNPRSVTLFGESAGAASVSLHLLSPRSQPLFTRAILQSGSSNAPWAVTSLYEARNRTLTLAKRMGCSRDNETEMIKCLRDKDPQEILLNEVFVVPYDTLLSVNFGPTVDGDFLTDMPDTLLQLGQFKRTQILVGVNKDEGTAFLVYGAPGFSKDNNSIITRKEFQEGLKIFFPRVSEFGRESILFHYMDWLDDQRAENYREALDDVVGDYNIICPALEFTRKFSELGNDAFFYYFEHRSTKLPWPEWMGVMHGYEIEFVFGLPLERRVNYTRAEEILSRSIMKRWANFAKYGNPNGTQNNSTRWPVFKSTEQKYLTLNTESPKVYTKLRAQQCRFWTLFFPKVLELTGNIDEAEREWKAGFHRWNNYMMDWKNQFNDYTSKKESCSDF
S6K2, sequence (Q9UBS0 whole entry, looked up): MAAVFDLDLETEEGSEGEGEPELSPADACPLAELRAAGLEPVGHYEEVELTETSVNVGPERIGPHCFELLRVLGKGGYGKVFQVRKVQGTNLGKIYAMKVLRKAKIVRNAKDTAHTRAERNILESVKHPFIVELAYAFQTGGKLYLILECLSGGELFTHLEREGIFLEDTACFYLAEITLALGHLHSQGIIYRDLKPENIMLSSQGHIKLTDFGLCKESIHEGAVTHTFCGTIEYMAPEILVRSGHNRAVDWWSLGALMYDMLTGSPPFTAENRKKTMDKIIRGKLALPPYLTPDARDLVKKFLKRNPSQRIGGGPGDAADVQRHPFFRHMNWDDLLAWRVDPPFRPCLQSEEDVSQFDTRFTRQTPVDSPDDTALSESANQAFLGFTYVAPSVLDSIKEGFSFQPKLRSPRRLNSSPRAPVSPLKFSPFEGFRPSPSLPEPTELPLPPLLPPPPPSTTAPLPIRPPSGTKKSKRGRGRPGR
T4 sequence (O42275 24-633): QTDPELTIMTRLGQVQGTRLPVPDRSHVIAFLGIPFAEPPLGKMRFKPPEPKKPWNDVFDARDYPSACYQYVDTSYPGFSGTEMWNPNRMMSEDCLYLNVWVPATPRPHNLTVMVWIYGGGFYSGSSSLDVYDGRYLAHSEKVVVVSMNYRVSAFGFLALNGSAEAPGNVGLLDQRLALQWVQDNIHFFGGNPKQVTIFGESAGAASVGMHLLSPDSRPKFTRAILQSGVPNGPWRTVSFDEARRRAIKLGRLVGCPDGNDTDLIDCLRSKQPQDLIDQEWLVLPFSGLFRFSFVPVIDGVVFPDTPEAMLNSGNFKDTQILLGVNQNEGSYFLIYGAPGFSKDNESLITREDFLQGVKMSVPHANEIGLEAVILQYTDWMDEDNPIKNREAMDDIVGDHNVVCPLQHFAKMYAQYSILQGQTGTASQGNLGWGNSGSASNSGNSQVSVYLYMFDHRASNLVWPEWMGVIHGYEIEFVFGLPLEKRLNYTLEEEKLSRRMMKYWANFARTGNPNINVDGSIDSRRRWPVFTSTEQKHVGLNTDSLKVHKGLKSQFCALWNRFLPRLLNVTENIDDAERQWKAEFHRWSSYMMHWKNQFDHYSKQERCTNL
T1 sequence (P81908 whole entry): as the sequence (P81908 whole entry) above
T3 sequence (P81908 whole entry): as above

For the compound `CCCCOP(=O)(OCCCC)Oc1ccccc1Cl` [DB2ClPP, Di-n-butyl 2-chlorophenyl phosphate], the “effect on trypsin activity (FIG. 3)” value in the data set on trypsin is “none of the above mentioned enzymes were affected”. Further, the “effect on hexokinase activity (FIG. 6)” value in the data set on hexokinase is given as “none of the above mentioned enzymes were affected”. The “uptake, fg/cell” value in the data set on human umbilical cells (Neurons, 0 hours) worked out at 78.85 ± 8.04 fg/cell; in the data set on human umbilical cells (Neurons, 24 hours) it was 820.52 ± 82.32 fg/cell; in the data set on human umbilical cells (Undifferentiated cells, 0 hours), 114.72 ± 37.93 fg/cell; in the data set with human umbilical cells (Undifferentiated cells, 24 hours), 795.89 ± 202.41 fg/cell. Moreover, on BuChase, the “type of inhibition from covalent modification of active site serine peptide (FIG. 12)” value is “likely an irreversible inhibitor”. In addition, in data set [1], the “effect on mortality of porcine umbilical stem cells (FIG. 7)” value is listed as “did not have any significant effect on mortality”. In addition, in the data set on chymotrypsin, the “effect on chymotrypsin activity (FIG. 4)” value is recorded as “none of the above mentioned enzymes were affected”. Further, the “% Remaining Activity” value at butyrylcholinesterase (0 hours at 4° C. after removal of excess inhibitor) turned out to be 0.6%; on butyrylcholinesterase (3.5 hours at 4° C. after removal of excess inhibitor), 0.6%; at butyrylcholinesterase (7 hours at 4° C. after removal of excess inhibitor) it was 0.8%; at butyrylcholinesterase (24 hours at 4° C. after removal of excess inhibitor), 1.1%. Also, the “reactivation of inactivated BuChase” value on butyrylcholinesterase (over 24 hours at 4° C.) is “no significant reactivation”. Besides, the “effect on S6K2 activity (FIG. 5)” value on S6K2 is listed as “none of the above mentioned enzymes were affected”. For the same compound, the “k, rate constant of inactivation of butyrylcholinesterase ± S.E.M” value in data set [2] was found to be 64.76 ± 3.0 min^−1 × 10^−2. Further, the activity at 100 µM in data set [3] came to 97.6 ± 0.029%. The “effect on PKA activity (FIG. 5)” value in the data set with Protein Kinase A (PKA) is “none of the above mentioned enzymes were affected”.
